Each structure is given as a SMILES string.

This passage reports IC50 results from patent US20230192661A1, “1, 4, 5, 6-TETRAHYDROPYRIMIDINE-2-AMINE DERIVATIVE” (UBE Corporation, priority 2020, published 2023).

In the experiment the target is T1, αvβ6 (Homo sapiens, UniProt P06756+P18564).
T1 construct: endogenous in cells; host or cells: HT-29 cells
T1 sequence (P06756 31-889 limits assumed): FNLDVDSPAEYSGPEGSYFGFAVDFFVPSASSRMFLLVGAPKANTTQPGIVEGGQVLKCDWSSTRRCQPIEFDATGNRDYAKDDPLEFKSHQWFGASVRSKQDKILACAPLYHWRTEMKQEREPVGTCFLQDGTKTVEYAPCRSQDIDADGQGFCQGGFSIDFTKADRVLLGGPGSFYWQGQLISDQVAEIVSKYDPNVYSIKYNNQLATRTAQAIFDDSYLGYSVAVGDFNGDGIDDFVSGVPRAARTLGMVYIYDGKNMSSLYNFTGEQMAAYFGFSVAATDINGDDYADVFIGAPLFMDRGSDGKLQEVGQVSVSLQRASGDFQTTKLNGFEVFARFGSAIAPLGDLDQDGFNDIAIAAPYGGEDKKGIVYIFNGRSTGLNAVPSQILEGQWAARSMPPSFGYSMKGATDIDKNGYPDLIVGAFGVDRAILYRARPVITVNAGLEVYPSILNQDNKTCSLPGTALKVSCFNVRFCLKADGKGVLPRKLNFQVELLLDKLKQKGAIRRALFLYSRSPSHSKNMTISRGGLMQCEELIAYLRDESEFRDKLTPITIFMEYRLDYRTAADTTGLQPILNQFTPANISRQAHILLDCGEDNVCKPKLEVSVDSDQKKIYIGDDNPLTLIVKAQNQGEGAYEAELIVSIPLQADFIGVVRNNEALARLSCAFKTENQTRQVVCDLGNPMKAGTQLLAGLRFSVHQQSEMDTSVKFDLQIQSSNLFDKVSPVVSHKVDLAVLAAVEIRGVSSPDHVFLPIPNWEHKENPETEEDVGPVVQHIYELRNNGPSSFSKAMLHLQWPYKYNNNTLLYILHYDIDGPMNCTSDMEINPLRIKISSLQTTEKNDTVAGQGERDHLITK
T1 sequence (P06756 891-1048 limits assumed): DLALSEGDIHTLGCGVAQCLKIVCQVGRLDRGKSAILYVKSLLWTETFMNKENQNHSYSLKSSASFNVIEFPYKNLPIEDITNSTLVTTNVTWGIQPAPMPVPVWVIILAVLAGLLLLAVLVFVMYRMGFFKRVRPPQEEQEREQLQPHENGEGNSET
T1 sequence (P18564 22-788): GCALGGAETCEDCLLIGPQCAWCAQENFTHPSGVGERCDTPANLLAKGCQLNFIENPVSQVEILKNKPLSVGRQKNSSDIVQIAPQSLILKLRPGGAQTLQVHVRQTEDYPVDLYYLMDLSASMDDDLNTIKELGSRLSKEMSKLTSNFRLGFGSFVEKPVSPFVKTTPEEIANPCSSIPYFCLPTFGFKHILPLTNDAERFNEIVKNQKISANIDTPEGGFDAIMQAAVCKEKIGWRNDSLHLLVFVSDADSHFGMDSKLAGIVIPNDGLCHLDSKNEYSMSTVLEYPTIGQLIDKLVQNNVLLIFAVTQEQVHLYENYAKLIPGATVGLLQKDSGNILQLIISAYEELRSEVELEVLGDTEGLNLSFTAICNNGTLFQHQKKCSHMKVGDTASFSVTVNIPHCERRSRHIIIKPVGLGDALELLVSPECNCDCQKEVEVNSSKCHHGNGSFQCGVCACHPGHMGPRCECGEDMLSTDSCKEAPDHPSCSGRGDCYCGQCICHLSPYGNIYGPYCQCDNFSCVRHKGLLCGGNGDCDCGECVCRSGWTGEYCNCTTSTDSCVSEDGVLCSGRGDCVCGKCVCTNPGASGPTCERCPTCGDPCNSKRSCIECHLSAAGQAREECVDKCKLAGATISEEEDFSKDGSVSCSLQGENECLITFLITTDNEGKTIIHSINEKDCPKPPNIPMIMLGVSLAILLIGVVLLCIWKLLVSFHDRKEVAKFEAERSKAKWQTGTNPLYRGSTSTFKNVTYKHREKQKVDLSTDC
The experiment is described as follows: αvβ6 cell adhesion inhibition test (HT-29 cells on recombinant human LAP protein). The experiment is classed as cell-based. The conditions noted are these: recombinant human LAP coating, 200 μM MnCl2, 1 hour, read-out: IC50 (rate of inhibition of cell adhesion, αvβ6). As to the method: Test Example 2 was performed by partially modifying the method of Henderson et al. (Nat Med., 19 (12), 1617-24, 2013). In Test Example 2, the same reagents as in Test Example 1 were used unless otherwise specified.
Recombinant human LAP protein (manufactured by R&D Systems, Inc., 246-LP-025) was prepared at […] with PBS, dispensed at 100 μL/well to a 96-well plate, and left standing overnight. The plate was washed with HBSS, then subjected to blocking treatment with DMEM containing 1% BSA, and used as a coated plate in the adhesion test.
HT-29 cells cultured in McCoy's 5A medium (manufactured by Thermo Fisher Scientific, Inc., 16600) containing 10% FBS and 1% penicillin/streptomycin/amphotericin B were recovered and suspended in DMEM containing 0.1% BSA and 200 μM MnCl2 to prepare a cell suspension. A test compound was added thereto.
The cell suspension of 5×10^5 cells/mL containing the test compound was added at 100 μL/well to the coated plate and left standing for 1 hour in a 5% CO2 incubator (37° C.). One hour later, the supernatant was removed, and the plate was washed with HBSS containing 200 μM MnCl2. The cells that adhered to each well in the plate were stained with crystal violet, and the cells were lysed, followed by absorbance measurement. Inhibition without substrate coating was defined as 100% inhibition, and inhibition when DMSO was added instead of the test compound was defined as 0% inhibition. The rate of inhibition of cell adhesion by the test compound was calculated according to the following expression.
Rate of inhibition of cell adhesion (%)=[1−{(Absorbance in the case of adding the test compound)−(Absorbance without substrate coating)}/{(Absorbance in the case of adding DMS)−(Absorbance without substrate coating)}]×100
An IC50 value was calculated from the rate of inhibition of cell adhesion by the test compound. A: IC50<3 nM, B: 3 nM≤IC50<10 nM, C: 10 nM≤IC50<30 nM, D: 30 nM≤IC50<100 nM, or E: IC50≥100 nM.
By IC50 is commonly meant the concentration that inhibits the measured activity by half. For the compound `O=C(O)C[C@H](NC(=O)CNC(=O)c1cc(NC2=NCC(F)CN2)c2cn[nH]c2c1)c1ccc(C(F)(F)F)cc1` (stereo partly drawn) [Example 47-(b), (3S)-3-(2-(4-((5-fluoro-1,4,5,6-tetrahydropyrimidin-2-yl)amino)-1H-indazole-6-carboxamido)acetamido)-3-(4-(trifluoromethyl)phenyl)propanoic acid], the IC50 was 3 to 10 nM.
As for `O=C(O)C[C@H](NC(=O)CNC(=O)c1cc(NC2=NCC(F)CN2)c2cn[nH]c2c1)c1cccc(Cl)c1` (stereo partly drawn) [Example 41-(b), (3S)-3-(3-chlorophenyl)-3-(2-(4-((5-fluoro-1,4,5,6-tetrahydropyrimidin-2-yl)amino)-1H-indazole-6-carboxamido)acetamido)propanoic acid], the IC50 was under 3 nM.
Regarding `Cc1cc([C@H](CC(=O)O)NC(=O)CNC(=O)c2cc(NC3=NCC(F)CN3)c3cn[nH]c3c2)cc(C(F)(F)F)c1` (stereo partly drawn) [Example 4-(b), (3S)-3-(2-(4-((5-fluoro-1,4,5,6-tetrahydropyrimidin-2-yl)amino)-1H-indazole-6-carboxamido)acetamido)-3-(3-methyl-5-(trifluoromethyl)phenyl)propanoic acid], the IC50 was under 3 nM.
The value for `O=C(O)C[C@H](NC(=O)CNC(=O)c1cc(NC2=NCC(F)CN2)c2cn[nH]c2c1)c1cccc(OC(F)(F)F)c1` (stereo partly drawn) [Example 36-(b), (3S)-3-(2-(4-((5-fluoro-1,4,5,6-tetrahydropyrimidin-2-yl)amino)-1H-indazole-6-carboxamido)acetamido)-3-(3-(trifluoromethoxy)phenyl)propanoic acid] was under 3 nM; that for `Cc1cc(C)n(-c2cccc([C@H](CC(=O)O)NC(=O)CNC(=O)c3cc(NC4=NCC(F)CN4)c4cn[nH]c4c3)c2)n1` (stereo partly drawn) [Example 44-(b), (3S)-3-(3-(3,5-dimethyl-1H-pyrazol-1-yl)phenyl)-3-(2-(4-((5-fluoro-1,4,5,6-tetrahydropyrimidin-2-yl)amino)-1H-indazole-6-carboxamido)acetamido)propanoic acid] was under 3 nM; that for `O=C(O)C[C@H](NC(=O)CNC(=O)c1cc(NC2=NCC(F)CN2)c2cn[nH]c2c1)c1cccc(C2CC2)c1` (stereo partly drawn) [Example 39-(b), (3S)-3-(3-cyclopropylphenyl)-3-(2-(4-((5-fluoro-1,4,5,6-tetrahydropyrimidin-2-yl)amino)-1H-indazole-6-carboxamido)acetamido)propanoic acid] was under 3 nM.
The value for `O=C(O)C[C@H](NC(=O)CNC(=O)c1cc(NC2=NCC(F)CN2)c2cn[nH]c2c1)c1cc(C(F)(F)F)ccc1Cl` (stereo partly drawn) [Example 12-(b), (3S)-3-(2-chloro-5-(trifluoromethyl)phenyl)-3-(2-(4-((5-fluoro-1,4,5,6-tetrahydropyrimidin-2-yl)amino)-1H-indazole-6-carboxamido)acetamido)propanoic acid] was 3 to 10 nM.
With `O=C(O)C[C@H](NC(=O)CNC(=O)c1cc(NC2=NCC(F)CN2)c2cn[nH]c2c1)c1cc(-n2cccn2)cc(C(F)(F)F)c1` (stereo partly drawn) [Example 8-(b), (3S)-3-(3-(1H-pyrazol-1-yl)-5-(trifluoromethyl)phenyl)-3-(2-(4-((5-fluoro-1,4,5,6-tetrahydropyrimidin-2-yl)amino)-1H-indazole-6-carboxamido)acetamido)propanoic acid] the figure was under 3 nM; with `O=C(O)C[C@H](NC(=O)CNC(=O)c1cc(NC2=NCC(F)CN2)cc2[nH]ncc12)c1cc(I)cc(C(F)(F)F)c1` (stereo partly drawn) [Example 54-(b), (3S)-3-(2-(6-((5-fluoro-1,4,5,6-tetrahydropyrimidin-2-yl)amino)-1H-indazole-4-carboxamido)acetamido)-3-(3-iodo-5-(trifluoromethyl)phenyl)propanoic acid], under 3 nM.
Consider `O=C(O)C[C@H](NC(=O)CNC(=O)c1cc(NC2=NCC(F)CN2)c2c(Cl)n[nH]c2c1)c1cc(Cl)cc(C(F)(F)F)c1` (stereo partly drawn) [Example 49-(b), (3S)-3-(2-(3-chloro-4-((5-fluoro-1,4,5,6-tetrahydropyrimidin-2-yl)amino)-1H-indazole-6-carboxamido)acetamido)-3-(3-chloro-5-(trifluoromethyl)phenyl)propanoic acid], for which the half-maximal inhibitory concentration (IC50) is under 3 nM.
The value for `O=C(O)C[C@H](NC(=O)CNC(=O)c1cc(NC2=NCC(F)CN2)c2cn[nH]c2c1)c1cc(Cl)cc(Cl)c1` (stereo partly drawn) [Example 17-(b), (3S)-3-(3,5-dichlorophenyl)-3-(2-(4-((5-fluoro-1,4,5,6-tetrahydropyrimidin-2-yl)amino)-1H-indazole-6-carboxamido)acetamido)propanoic acid] was 3 to 10 nM.
With `O=C(O)C[C@H](NC(=O)CNC(=O)c1cc(NC2=NCC(F)CN2)cc2[nH]ncc12)c1ccc(F)c(C(F)(F)F)c1` (stereo partly drawn) [Example 55-(b), (3S)-3-(2-(6-((5-fluoro-1,4,5,6-tetrahydropyrimidin-2-yl)amino)-1H-indazole-4-carboxamido)acetamido)-3-(4-fluoro-3-(trifluoromethyl)phenyl)propanoic acid] the figure was under 3 nM; with `Cc1ccc([C@H](CC(=O)O)NC(=O)CNC(=O)c2cc(NC3=NCC(F)CN3)c3cn[nH]c3c2)cc1C(F)(F)F` (stereo partly drawn) [Example 14-(b), (3S)-3-(2-(4-((5-fluoro-1,4,5,6-tetrahydropyrimidin-2-yl)amino)-1H-indazole-6-carboxamido)acetamido)-3-(4-methyl-3-(trifluoromethyl)phenyl)propanoic acid], under 3 nM.
The value for `O=C(O)C[C@H](NC(=O)CNC(=O)c1cc(NC2=NCC(F)CN2)c2c(F)n[nH]c2c1)c1cc(Cl)cc(C(F)(F)F)c1` (stereo partly drawn) [Example 48-(b), (3S)-3-(3-chloro-5-(trifluoromethyl)phenyl)-3-(2-(3-fluoro-4-((5-fluoro-1,4,5,6-tetrahydropyrimidin-2-yl)amino)-1H-indazole-6-carboxamido)acetamido) propanoic acid] was under 3 nM.
On to `O=C(O)C[C@H](NC(=O)CNC(=O)c1cc(NC2=NCC(F)CN2)c2cn[nH]c2c1)c1cccc(C(F)(F)F)c1F` (stereo partly drawn) [Example 9-(b), (3S)-3-(2-(4-((5-fluoro-1,4,5,6-tetrahydropyrimidin-2-yl)amino)-1H-indazole-6-carboxamido)acetamido)-3-(2-fluoro-3-(trifluoromethyl)phenyl)propanoic acid], for which the IC50 is under 3 nM.
With `O=C(O)C[C@H](NC(=O)CNC(=O)c1cc(NC2=NCC(F)CN2)c2cn[nH]c2c1)c1cc(Br)cc(OC(F)F)c1` (stereo partly drawn) [Example 26-(b), (3S)-3-(3-bromo-5-(difluoromethoxy)phenyl)-3-(2-(4-((5-fluoro-1,4,5,6-tetrahydropyrimidin-2-yl)amino)-1H-indazole-6-carboxamido)acetamido)propanoic acid] the figure was under 3 nM; with `O=C(O)C[C@H](NC(=O)CNC(=O)c1cc(NC2=NCC(F)CN2)c2cn[nH]c2c1)c1cc(OC(F)F)cc(-n2cccn2)c1` (stereo partly drawn) [Example 29-(b), (3S)-3-(3-(difluoromethoxy)-5-(1H-pyrazol-1-yl)phenyl)-3-(2-(4-((5-fluoro-1,4,5,6-tetrahydropyrimidin-2-yl)amino)-1H-indazole-6-carboxamido)acetamido)propanoic acid], under 3 nM; with `O=C(O)C[C@H](NC(=O)CNC(=O)c1cc(NC2=NCC(F)CN2)c2cn[nH]c2c1)c1cc(Cl)cc(Br)c1` (stereo partly drawn) [Example 18-(b), (3S)-3-(3-bromo-5-chlorophenyl)-3-(2-(4-((5-fluoro-1,4,5,6-tetrahydropyrimidin-2-yl)amino)-1H-indazole-6-carboxamido)acetamido)propanoic acid], under 3 nM.
